Oligonucleotides are written 5' to 3', each unit as a sugar letter and its base; * is a phosphorothioate linkage, no mark a phosphodiester; rarer units and linkages stand in square brackets, end groups in braces. Plain capitals give the bases only. e = 2'-O-(2-methoxyethyl) (MOE); [5mC] = 5-methylcytosine; d = 2'-deoxy (DNA)
What was measured:
Type in all cases: cell-based
[1] = test system: murine TTC39B mRNA; assay: Antisense inhibition of murine TTC39B in mouse primary hepatocytes, single dose; conditions: 100 nM, cytofectin, ~24 h, vs untreated control
Procedure: Antisense oligonucleotides targeted to a TTC39B nucleic acid were tested for their effects on TTC39B mRNA in vitro. Cultured mouse primary hepatocytes at a density of 10,000 cells per well were transfected using cytofectin reagent with 100 nM antisense oligonucleotide. After a treatment period of approximately 24 hours, RNA was isolated from the cells and TTC39B mRNA levels were measured by quantitative real-time PCR. TTC39B mRNA levels were adjusted according to total RNA content, as measured by RIBOGREEN®. Results are presented as percent inhibition of TTC39B, relative to untreated control cells.
The chimeric antisense oligonucleotides in Tables 1 and 2 were designed as 5-10-5 MOE gapmers. The gapmers are 20 nucleotides in length, wherein the central gap segment is comprised of 10 2′-deoxynucleotides and is flanked on both sides (in the 5′ and 3′ directions) by wings comprising 5 nucleotides each. Each nucleotide in the 5′ wing segment and each nucleotide in the 3′ wing segment has a 2′-MOE modification. The internucleoside linkages throughout each gapmer are phosphorothioate (P═S) linkages. All cytosine residues throughout each gapmer are 5-methylcytosines. “Target start site” indicates the 5′-most nucleotide to which the gapmer is targeted. “Target stop site” indicates the 3′-most nucleotide to which the gapmer is targeted. Each gapmer listed in Table 1 is targeted to SEQ ID NO: 6 (GENBANK Accession No. NM_027238.2) and each gapmer listed in Table 2 is targeted to SEQ ID NO: 10 (the complement of GENBANK Accession No. NT—039260.7 truncated at nucleotides 22491001 to 22601000), SEQ ID NO: 11 (GENBANK Accession No. BY244623.1), SEQ ID NO: 12 (GENBANK Accession No. BY260936), SEQ ID NO: 13 (GENBANK Accession No. BM935568.1) or SEQ ID NO: 14 (GENBANK Accession No. BY728780.1).

[2] = test system: murine TTC39B mRNA; assay: Dose-dependent antisense inhibition of murine TTC39B in mouse primary hepatocytes (Example 2); conditions: cytofectin, ~16 h
Procedure: Cells were plated at a density of 10,000 cells per well and transfected using cytofectin reagent with 25 nM, 50 nM, 100 nM, and 200 nM concentrations of antisense oligonucleotide, as specified in Table 3. After a treatment period of approximately 16 hours, RNA was isolated from the cells and TTC39B mRNA levels were measured by quantitative real-time PCR. Murine primer probe set mTtc39b_LTS00287 (forward sequence: […], incorporated herein as SEQ ID NO: 94; reverse sequence: […], incorporated herein as SEQ ID NO: 95; probe sequence: […], incorporated herein as SEQ ID NO: 96) was used to measure mRNA levels. TTC39B mRNA levels were adjusted according to total RNA content, as measured by RIBOGREEN®. Results are presented as percent inhibition of TTC39B, relative to untreated control cells.

[3] = test system: murine TTC39C mRNA; assay: Antisense inhibition of mouse TTC39C in mouse primary hepatocytes, single dose; conditions: 8,000 nM antisense oligonucleotide, electroporation, approximately 24 hours, TTC39C mRNA by real-time PCR (RTS3266), relative to untreated control cells
Procedure: Antisense oligonucleotides were designed targeting a TTC39C nucleic acid and were tested for their effects on TTC39C mRNA in vitro. Cultured mouse primary hepatocytes at a density of 30,000 cells per well were transfected by electroporation with 8,000 nM antisense oligonucleotide. After a treatment period of approximately 24 hours, RNA was isolated from the cells and TTC39C mRNA levels were measured by quantitative real-time PCR. Mouse primer probe set RTS3266 (forward sequence […], designated herein as SEQ ID NO: 140; reverse sequence […], designated herein as SEQ ID NO: 141; probe sequence […], designated herein as SEQ ID NO: 142). TTC39C mRNA levels were adjusted according to total RNA content, as measured by RIBOGREEN®. Results are presented as percent inhibition of TTC39C, relative to untreated control cells.
The chimeric antisense oligonucleotides targeting TTC39C were designed as 5-10-5 MOE gapmers. The gapmers are 20 nucleotides in length, wherein the central gap segment is comprised of ten 2′-deoxynucleotides and is flanked on both sides (in the 5′ and 3′ directions) by wings comprising five nucleotides each. Each nucleotide in the 5′ wing segment and each nucleotide in the 3′ wing segment has a 2′-MOE modification. The internucleoside linkages throughout each gapmer are phosphorothioate (P═S) linkages. All cytosine residues throughout each gapmer are 5-methylcytosines. “Mouse Target start site” indicates the 5′-most nucleotide to which the gapmer is targeted in the mouse gene sequence.

[4] = test system: murine TTC39C mRNA; assay: Dose-dependent antisense inhibition of murine TTC39C in mouse primary hepatocytes; conditions: electroporation, ~16 h
Procedure: Thirty antisense oligonucleotides were selected from the study described in Example 8 and further tested at various doses in mouse primary hepatocytes. Cells were plated at a density of 30,000 cells per well and transfected using electroporation with 500 nM, 1,000 nM, 2,000 nM, 4,000 nM, and 8,000 nM concentrations of antisense oligonucleotide, as specified in Table 30. After a treatment period of approximately 16 hours, RNA was isolated from the cells and TTC39C mRNA levels were measured by quantitative real-time PCR. Murine primer probe set RTS3266 was used to measure mRNA levels. TTC39C mRNA levels were adjusted according to total RNA content, as measured by RIBOGREEN®. Results are presented as percent inhibition of TTC39C, relative to untreated control cells.

[5] = gapmers targeted to SEQ ID NO: 6

| Substance | % inhibition of murine TTC39B mRNA ([1]; gapmers targeted to SEQ ID NO: 10-14) [%] | percent inhibition of TTC39B mRNA ([2]; 25 nM) [%] | percent inhibition of TTC39B mRNA ([2]; 50 nM) [%] | percent inhibition of TTC39B mRNA ([2]; 100 nM) [%] | percent inhibition of TTC39B mRNA ([2]; 200 nM) [%] | % inhibition of murine TTC39B mRNA [1, 5] [%] | % inhibition [3] [%] | percent inhibition of TTC39C mRNA ([4]; 500.0 nM) [%] | percent inhibition of TTC39C mRNA ([4]; 1000.0 nM) [%] | percent inhibition of TTC39C mRNA ([4]; 2000.0 nM) [%] | percent inhibition of TTC39C mRNA ([4]; 4000.0 nM) [%] | percent inhibition of TTC39C mRNA ([4]; 8000.0 nM) [%] | IC50 ([4]; mouse primary hepatocytes) [nM] |
| --- | --- | --- | --- | --- | --- | --- | --- | --- | --- | --- | --- | --- | --- |
| GAGATCAGTTTCTGATGAAA (antisense eG*eA*eG*eA*eT*d[5mC]*dA*dG*dT*dT*dT*d[5mC]*dT*dG*dA*eT*eG*eA*eA*eA) [ISIS 447169] | 67 | 17 | 43 | 65 | 81 |  |  |  |  |  |  |  |  |
| GAGTCCACCTTTGATGAAGT (antisense eG*eA*eG*eT*e[5mC]*d[5mC]*dA*d[5mC]*d[5mC]*dT*dT*dT*dG*dA*dT*eG*eA*eA*eG*eT) [ISIS 447110] |  | 39 | 52 | 77 | 87 | 69 |  |  |  |  |  |  |  |
| GCCAATCTAAAAATGGCTCA (antisense eG*e[5mC]*e[5mC]*eA*eA*dT*d[5mC]*dT*dA*dA*dA*dA*dA*dT*dG*eG*e[5mC]*eT*e[5mC]*eA) [ISIS 447135] |  | 35 | 52 | 66 | 76 | 67 |  |  |  |  |  |  |  |
| GCTCAGCTTGCAAGGGCCGC (antisense eG*e[5mC]*eT*e[5mC]*eA*dG*d[5mC]*dT*dT*dG*d[5mC]*dA*dA*dG*dG*eG*e[5mC]*e[5mC]*eG*e[5mC]) [ISIS 447127] |  | 40 | 62 | 84 | 90 | 65 |  |  |  |  |  |  |  |
| GGACTGCCTGCCATGGGTGC (antisense eG*eG*eA*e[5mC]*eT*dG*d[5mC]*d[5mC]*dT*dG*d[5mC]*d[5mC]*dA*dT*dG*eG*eG*eT*eG*e[5mC]) [ISIS 447146] |  | 44 | 55 | 78 | 89 | 69 |  |  |  |  |  |  |  |
| GGAGGTCCCCTGGCCACGGC (antisense eG*eG*eA*eG*eG*dT*d[5mC]*d[5mC]*d[5mC]*d[5mC]*dT*dG*dG*d[5mC]*d[5mC]*eA*e[5mC]*eG*eG*e[5mC]) [ISIS 447151] |  | 39 | 56 | 76 | 85 | 65 |  |  |  |  |  |  |  |
| GGCACTCTTTATATATTTGG (antisense eG*eG*e[5mC]*eA*e[5mC]*dT*d[5mC]*dT*dT*dT*dA*dT*dA*dT*dA*eT*eT*eT*eG*eG) [ISIS 447111] |  | 30 | 60 | 77 | 87 | 71 |  |  |  |  |  |  |  |
| GGTGGAGTCTGGCCCTCAGC (antisense eG*eG*eT*eG*eG*dA*dG*dT*d[5mC]*dT*dG*dG*d[5mC]*d[5mC]*d[5mC]*eT*e[5mC]*eA*eG*e[5mC]) [ISIS 447142] |  | 36 | 64 | 85 | 91 | 66 |  |  |  |  |  |  |  |
| GTTGCCTTGGACCATTTACT (antisense eG*eT*eT*eG*e[5mC]*d[5mC]*dT*dT*dG*dG*dA*d[5mC]*d[5mC]*dA*dT*eT*eT*eA*e[5mC]*eT) [ISIS 447122] |  | 35 | 61 | 78 | 88 | 67 |  |  |  |  |  |  |  |
| ISIS 474515: 5-10-5 MOE gapmer antisense oligonucleotide targeting murine TTC39C (antisense eT*e[5mC]*e[5mC]*e[5mC]*eT*dG*dA*dA*dG*d[5mC]*d[5mC]*dG*dT*dT*dG*eT*eT*eG*eA*eG) |  |  |  |  |  |  | 96 | 56 | 62 | 79 | 91 | 94 |  |
| ISIS 474516: 5-10-5 MOE gapmer antisense oligonucleotide targeting murine TTC39C (antisense eT*eT*eA*eG*eT*dG*dG*dA*d[5mC]*dT*dA*dT*dG*dA*dT*eT*eT*e[5mC]*eT*eG) |  |  |  |  |  |  | 94 | 34 | 61 | 71 | 88 | 95 | 800 |
| ISIS 474517: 5-10-5 MOE gapmer antisense oligonucleotide targeting murine TTC39C (antisense e[5mC]*e[5mC]*eT*e[5mC]*eG*dA*dA*dT*dG*dT*d[5mC]*dA*dT*d[5mC]*dA*eT*eG*eG*e[5mC]*eG) |  |  |  |  |  |  | 98 | 60 | 67 | 89 | 95 | 97 |  |
| TCGAAATGTTTCTTGAGCCT (antisense eT*e[5mC]*eG*eA*eA*dA*dT*dG*dT*dT*dT*d[5mC]*dT*dT*dG*eA*eG*e[5mC]*e[5mC]*eT) [ISIS 447119] |  | 28 | 52 | 80 | 77 | 65 |  |  |  |  |  |  |  |
| TGAATGCTATTATTGGATCT (antisense eT*eG*eA*eA*eT*dG*d[5mC]*dT*dA*dT*dT*dA*dT*dT*dG*eG*eA*eT*e[5mC]*eT) [ISIS 447140] |  | 29 | 55 | 77 | 80 | 66 |  |  |  |  |  |  |  |

— US20120270929A1, “MODULATION OF TTC39 EXPRESSION TO INCREASE HDL” (ISIS Pharmaceuticals, Inc., priority 2009, published 2012)
